Measured values as given in ChEMBL document CHEMBL1201862, “PubChem BioAssay data set” (2004).
Activity calls are given as the source filed them.

What was measured:
[1] = biological target: Glyceraldehyde-3-phosphate dehydrogenase (Homo sapiens, UniProt P04406)
[2] = biological target: T1, Bcl-2-related protein A1 (Mus musculus, UniProt Q07440); experiment: Bfl-1 inhibitors blocking BH3 peptide binding, confirmation, biochemical, TR-FRET, mouse Bfl-1 (AID 621);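 further: TR-FRET binding of GST-Bfl-1 to FITC-labelled Bid peptide via terbium antibody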
T1 sequence (Q07440 whole entry): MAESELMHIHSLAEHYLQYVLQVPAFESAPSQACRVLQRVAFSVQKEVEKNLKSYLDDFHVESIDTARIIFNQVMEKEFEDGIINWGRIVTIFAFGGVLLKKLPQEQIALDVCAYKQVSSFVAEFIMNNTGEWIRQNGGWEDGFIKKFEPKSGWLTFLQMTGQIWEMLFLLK

[3] = biological target: T1, Bcl-2-related protein A1; experiment: Bfl-1 binding inhibitors, SAR follow-up, biochemical, fluorescence polarization (AID 1070)
[4] = biological target: T2, Replicative DNA helicase DnaB (Mycobacterium tuberculosis, UniProt P9WMR3); experiment: DnaB intein splicing inhibitors, dose response, biochemical, cell-free fluorescence (AID 449749); format: functional
T2 sequence (P9WMR3 whole entry): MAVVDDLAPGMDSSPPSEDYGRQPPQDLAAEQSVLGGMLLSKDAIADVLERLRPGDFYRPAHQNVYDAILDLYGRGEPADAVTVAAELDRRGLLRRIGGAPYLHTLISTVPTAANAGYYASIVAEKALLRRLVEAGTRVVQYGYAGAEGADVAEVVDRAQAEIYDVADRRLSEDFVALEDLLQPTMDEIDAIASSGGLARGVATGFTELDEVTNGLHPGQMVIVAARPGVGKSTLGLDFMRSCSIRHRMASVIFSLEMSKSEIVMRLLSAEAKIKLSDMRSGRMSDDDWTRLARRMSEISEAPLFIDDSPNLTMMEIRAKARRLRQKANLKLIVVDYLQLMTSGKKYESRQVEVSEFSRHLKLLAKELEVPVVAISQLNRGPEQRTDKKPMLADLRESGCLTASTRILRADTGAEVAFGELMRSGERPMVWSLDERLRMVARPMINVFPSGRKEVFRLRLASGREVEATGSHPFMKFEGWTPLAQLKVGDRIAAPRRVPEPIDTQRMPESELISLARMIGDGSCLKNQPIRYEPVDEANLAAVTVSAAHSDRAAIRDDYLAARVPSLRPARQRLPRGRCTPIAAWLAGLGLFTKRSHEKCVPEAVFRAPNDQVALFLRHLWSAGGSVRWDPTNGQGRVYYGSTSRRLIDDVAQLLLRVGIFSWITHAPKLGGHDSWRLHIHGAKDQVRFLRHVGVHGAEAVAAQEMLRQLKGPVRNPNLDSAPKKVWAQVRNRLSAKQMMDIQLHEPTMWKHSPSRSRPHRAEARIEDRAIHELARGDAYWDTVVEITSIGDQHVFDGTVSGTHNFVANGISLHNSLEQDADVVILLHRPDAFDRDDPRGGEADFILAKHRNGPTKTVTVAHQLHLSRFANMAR

[5] = biological target: T3, Protein RecA (Mycobacterium tuberculosis, UniProt P9WHJ3); experiment: Fluorescence Cell-Free Homogeneous Dose Retest to Identify Inhibitors of RecA-Intein Splicing Activity. [Related pubchem assays (depositor defined):AID2097, AID2223, AID489010, AID492950]; format: functional
T3 sequence (P9WHJ3 whole entry): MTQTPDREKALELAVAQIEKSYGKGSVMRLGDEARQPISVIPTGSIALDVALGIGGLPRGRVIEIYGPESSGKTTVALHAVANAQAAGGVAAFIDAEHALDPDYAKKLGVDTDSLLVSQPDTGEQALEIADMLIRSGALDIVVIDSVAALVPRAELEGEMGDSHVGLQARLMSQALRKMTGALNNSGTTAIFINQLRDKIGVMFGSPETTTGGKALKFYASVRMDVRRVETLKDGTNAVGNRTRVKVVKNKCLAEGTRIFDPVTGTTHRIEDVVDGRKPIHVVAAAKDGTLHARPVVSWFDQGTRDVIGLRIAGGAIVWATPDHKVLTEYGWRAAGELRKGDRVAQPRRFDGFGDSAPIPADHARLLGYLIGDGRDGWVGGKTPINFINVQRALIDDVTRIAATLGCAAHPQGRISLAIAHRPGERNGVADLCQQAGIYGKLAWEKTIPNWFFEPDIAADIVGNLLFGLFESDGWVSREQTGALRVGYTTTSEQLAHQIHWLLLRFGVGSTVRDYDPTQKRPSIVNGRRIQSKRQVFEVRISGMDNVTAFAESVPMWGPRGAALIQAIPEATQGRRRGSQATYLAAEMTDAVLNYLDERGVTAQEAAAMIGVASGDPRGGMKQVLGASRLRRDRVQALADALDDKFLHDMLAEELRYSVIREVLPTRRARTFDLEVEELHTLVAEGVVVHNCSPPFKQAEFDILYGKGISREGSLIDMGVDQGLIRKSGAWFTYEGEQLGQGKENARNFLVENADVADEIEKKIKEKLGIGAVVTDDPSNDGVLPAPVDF

[6] = biological target: Genome polyprotein (dengue virus type 2, UniProt P29990); experiment: Dengue-2 NS5 methyltransferase inhibitors, primary screen, biochemical, confirmation dose response (AID 588689); format: functional
Genome polyprotein, sequence (P29990 2492-3391 limits assumed): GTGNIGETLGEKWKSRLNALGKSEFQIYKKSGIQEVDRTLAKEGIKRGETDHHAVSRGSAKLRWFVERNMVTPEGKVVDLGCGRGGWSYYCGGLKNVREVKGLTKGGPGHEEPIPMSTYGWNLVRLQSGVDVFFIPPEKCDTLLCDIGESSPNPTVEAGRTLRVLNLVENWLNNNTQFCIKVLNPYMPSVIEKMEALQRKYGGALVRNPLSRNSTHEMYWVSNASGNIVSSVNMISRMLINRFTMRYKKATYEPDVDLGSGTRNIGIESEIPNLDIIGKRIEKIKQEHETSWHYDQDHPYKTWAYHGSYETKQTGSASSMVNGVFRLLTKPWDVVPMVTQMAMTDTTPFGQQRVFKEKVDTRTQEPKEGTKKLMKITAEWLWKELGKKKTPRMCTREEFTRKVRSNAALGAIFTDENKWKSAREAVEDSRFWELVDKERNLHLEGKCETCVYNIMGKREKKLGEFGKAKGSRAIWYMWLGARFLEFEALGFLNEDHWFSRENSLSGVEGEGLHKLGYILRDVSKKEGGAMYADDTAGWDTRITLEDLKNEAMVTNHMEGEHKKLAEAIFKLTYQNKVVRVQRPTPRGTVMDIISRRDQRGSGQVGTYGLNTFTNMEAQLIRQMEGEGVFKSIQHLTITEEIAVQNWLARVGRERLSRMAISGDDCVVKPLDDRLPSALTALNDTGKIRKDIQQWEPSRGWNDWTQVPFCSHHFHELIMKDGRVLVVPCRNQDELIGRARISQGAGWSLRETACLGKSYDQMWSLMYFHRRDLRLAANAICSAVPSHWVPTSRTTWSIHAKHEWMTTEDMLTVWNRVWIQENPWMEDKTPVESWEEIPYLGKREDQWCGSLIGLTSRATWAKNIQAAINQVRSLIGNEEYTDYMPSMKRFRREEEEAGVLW

[7] = P. falciparum 3D7-ScDHODH growth inhibitors, dose response, SYBR Green, dry powder samples (AID 1159570); format: functional, cell-based;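 further: parasite growth measured after 72 hours of compound exposure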
[8] = HepG2 cell cytotoxicity, dose response, cytotoxicity control, plate reader, dry powder samples (AID 1159569); format: functional, cell-based;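 further: inhibitor potency with signal falling toward the positive control level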
[9] = P. falciparum Dd2 growth inhibitors, dose response, SYBR Green, cherry-picked samples (AID 1159567); format: functional, cell-based
[10] = P. falciparum Dd2 growth inhibitors, dose response, SYBR Green, dry powder samples (AID 1159566); format: functional, cell-based;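 further: potency for growth inhibition with lower SYBR green DNA signal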
[11] = HepG2 cell cytotoxicity, dose response, cytotoxicity control, cherry-picked samples (AID 1159577); format: functional, cell-based
[12] = P. falciparum ATP4 D1247Y mutant growth inhibitors, dose response, NITD609-resistant line, SYBR Green, dry powder (AID 1159571); format: functional, cell-based;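 further: parasites synchronized at ring stage by sorbitol before testing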
[13] = biological target: T4, Methionyl-tRNA synthetase, putative (Trypanosoma brucei brucei, UniProt Q38C91); format: functional, Trypanosoma brucei brucei strain 927/4 GUTat10.1
T4 sequence (Q38C91 whole entry): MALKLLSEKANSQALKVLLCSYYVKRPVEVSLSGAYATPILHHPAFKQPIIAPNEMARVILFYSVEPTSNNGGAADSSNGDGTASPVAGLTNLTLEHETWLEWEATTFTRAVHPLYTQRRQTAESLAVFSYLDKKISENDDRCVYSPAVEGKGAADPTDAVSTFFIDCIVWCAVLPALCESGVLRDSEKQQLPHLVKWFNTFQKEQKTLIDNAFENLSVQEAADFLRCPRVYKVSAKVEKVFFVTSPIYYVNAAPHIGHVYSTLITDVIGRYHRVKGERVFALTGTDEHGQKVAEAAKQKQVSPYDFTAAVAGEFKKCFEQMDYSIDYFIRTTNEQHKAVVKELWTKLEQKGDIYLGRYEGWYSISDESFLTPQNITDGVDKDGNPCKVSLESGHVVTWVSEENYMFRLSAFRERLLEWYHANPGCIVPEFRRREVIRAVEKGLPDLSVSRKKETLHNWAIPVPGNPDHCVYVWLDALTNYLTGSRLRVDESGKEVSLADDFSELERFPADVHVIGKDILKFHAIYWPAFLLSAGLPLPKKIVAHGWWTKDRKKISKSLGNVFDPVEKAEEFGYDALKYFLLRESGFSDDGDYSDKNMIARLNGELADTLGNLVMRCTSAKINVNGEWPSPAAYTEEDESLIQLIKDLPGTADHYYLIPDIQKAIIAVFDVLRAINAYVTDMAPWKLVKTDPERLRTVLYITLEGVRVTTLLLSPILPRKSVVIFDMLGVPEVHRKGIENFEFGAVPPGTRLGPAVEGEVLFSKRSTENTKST

[14] = Counterscreen for inhibitors of Trypanosoma brucei methionyl tRNA synthetase (MetRS): Luminescence-based cell-based high throughput dose response assay to identify compounds that are cytotoxic to Jurkat human T lymphocyte cells.; format: functional
[15] = biological target: T4, Methionyl-tRNA synthetase, putative; format: functional, Trypanosoma brucei brucei strain 927/4 GUTat10.1; remark: listed apart in the source
[16] = Late stage counterscreen for inhibitors of Trypanosoma brucei methionyl tRNA synthetase (MetRS): Luminescence-based cell-based high throughput dose response assay to identify compounds that are cytotoxic to Jurkat human T lymphocyte cells.; format: functional
[17] = biological target: T5, SUMO-activating enzyme (Homo sapiens, UniProt Q9UBT2); experiment: SUMOylation inhibitor hit validation, confirmation, SUMOylation inhibitor project, biochemical, AlphaScreen (AID 2018); format: functional
T5 sequence (Q9UBE0 whole entry): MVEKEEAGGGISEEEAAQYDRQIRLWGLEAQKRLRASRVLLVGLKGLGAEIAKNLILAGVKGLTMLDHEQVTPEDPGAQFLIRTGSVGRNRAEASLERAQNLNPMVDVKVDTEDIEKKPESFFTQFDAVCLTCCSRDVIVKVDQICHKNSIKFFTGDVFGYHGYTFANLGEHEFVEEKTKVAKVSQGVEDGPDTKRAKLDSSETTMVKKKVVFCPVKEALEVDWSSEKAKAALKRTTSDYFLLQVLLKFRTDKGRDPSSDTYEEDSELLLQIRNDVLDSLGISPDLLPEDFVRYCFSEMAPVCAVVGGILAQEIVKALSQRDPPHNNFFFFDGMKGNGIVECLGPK
T5 sequence (Q9UBT2 whole entry): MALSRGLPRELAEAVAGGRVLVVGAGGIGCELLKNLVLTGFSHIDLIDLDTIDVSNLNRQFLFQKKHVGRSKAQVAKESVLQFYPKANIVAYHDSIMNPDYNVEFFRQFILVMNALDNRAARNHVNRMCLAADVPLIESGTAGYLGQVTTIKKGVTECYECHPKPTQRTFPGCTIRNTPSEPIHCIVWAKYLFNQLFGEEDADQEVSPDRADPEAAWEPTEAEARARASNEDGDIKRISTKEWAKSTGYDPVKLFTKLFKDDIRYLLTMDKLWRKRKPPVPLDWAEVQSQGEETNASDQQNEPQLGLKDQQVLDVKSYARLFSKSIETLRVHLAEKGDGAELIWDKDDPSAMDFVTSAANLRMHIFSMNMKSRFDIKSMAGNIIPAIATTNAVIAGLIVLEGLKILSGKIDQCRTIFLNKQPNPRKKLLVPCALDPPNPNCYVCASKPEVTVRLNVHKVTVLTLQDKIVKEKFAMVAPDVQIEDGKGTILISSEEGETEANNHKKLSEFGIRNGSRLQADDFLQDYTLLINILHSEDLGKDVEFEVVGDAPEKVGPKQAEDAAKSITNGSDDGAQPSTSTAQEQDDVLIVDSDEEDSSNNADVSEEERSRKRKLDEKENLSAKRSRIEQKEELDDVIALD

[18] = biological target: T5, SUMO-activating enzyme; experiment: inhibitors of in vitro SUMOylation cascade, primary screen, biochemical, HTRF, uHTS (AID 2006); format: protein-complex assay
[19] = biological target: Bifunctional protein GlmU (Mycobacterium tuberculosis, UniProt P9WMN3); experiment: Inhibitors of Mycobacterial Glucosamine-1-phosphate acetyl transferase (GlmU). Secondary screen.; set-up: species or system Mycobacterium tuberculosis H37Rv
Bifunctional protein GlmU, sequence (P9WMN3 whole entry): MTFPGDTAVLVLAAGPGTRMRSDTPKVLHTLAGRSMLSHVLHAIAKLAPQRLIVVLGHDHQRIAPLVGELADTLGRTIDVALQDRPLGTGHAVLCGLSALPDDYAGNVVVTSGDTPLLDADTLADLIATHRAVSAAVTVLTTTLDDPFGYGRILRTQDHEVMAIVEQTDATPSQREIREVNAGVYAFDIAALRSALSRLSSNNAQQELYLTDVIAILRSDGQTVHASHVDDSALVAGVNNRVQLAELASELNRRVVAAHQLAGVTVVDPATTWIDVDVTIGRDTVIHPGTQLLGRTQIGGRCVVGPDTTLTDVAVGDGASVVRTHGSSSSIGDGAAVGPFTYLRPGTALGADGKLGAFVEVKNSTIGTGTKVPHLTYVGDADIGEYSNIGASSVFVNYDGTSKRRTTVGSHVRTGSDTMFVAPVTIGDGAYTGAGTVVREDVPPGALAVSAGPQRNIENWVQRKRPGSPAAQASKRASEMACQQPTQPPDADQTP

[20] = biological target: Eukaryotic translation initiation factor 4E (Mus musculus, UniProt P63073); experiment: eIF4E–eIF4G protein interaction inhibitors, dose response, biochemical, TR-FRET (AID 855); format: functional;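 further: potency for disrupting eIF4E binding to eIF4GI seen as loss of FRET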
Eukaryotic translation initiation factor 4E, sequence (P63073 whole entry): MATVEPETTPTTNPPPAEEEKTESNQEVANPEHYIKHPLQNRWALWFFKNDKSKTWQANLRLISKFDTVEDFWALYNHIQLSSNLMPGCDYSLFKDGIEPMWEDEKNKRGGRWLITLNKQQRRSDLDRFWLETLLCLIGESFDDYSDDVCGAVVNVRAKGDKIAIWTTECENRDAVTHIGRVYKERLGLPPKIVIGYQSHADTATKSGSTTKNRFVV

[21] = tested on: Vero; experiment: host cell cytotoxicity of antiviral hits, dose response, cytotoxicity control for West Nile virus antiviral project, secondary assay (AID 1650); format: functional; conditions: Chlorocebus sabaeus
[22] = P. falciparum Dd2 growth inhibitors, dose response, SYBR Green, dry powder samples, set 9 (AID 1159568); format: functional, cell-based
[23] = biological target: E3 ubiquitin-protein ligase Mdm2 (Homo sapiens, UniProt Q00987); experiment: enhancers of MDM2-luciferase reporter signal, concentration-effect titration, project on inhibitors of MDM2 ubiquitin ligase, cellular assay, luminescent readout, 384-well plate format (AID 1394); format: functional;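 further: MDM2 E3 inhibitors raise luminescence so EC50 is for signal enhancement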
E3 ubiquitin-protein ligase Mdm2, sequence (Q00987 whole entry): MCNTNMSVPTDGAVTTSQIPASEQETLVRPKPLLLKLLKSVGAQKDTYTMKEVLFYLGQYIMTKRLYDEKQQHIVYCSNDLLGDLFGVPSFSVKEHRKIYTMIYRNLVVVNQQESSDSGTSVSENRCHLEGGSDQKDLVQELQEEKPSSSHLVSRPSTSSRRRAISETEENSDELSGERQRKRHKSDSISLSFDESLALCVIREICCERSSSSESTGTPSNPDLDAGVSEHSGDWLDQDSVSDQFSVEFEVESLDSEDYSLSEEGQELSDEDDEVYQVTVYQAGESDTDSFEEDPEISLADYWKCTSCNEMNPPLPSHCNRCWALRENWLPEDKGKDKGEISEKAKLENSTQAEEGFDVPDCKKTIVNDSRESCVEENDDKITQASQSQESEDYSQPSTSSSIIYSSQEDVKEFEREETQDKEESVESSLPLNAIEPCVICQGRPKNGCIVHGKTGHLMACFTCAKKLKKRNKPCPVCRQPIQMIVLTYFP

Glyceraldehyde-3-phosphate dehydrogenase, sequence (P04406 whole entry): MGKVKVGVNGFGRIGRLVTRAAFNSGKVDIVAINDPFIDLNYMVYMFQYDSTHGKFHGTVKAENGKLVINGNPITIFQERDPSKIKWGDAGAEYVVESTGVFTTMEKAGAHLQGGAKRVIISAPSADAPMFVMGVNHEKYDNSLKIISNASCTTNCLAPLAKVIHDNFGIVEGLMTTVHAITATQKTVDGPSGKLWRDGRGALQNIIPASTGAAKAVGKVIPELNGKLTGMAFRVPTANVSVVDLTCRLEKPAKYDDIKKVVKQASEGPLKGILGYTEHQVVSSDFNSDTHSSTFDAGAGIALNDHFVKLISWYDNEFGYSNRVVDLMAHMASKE

O=C1C(Cl)=C(N2CCOCC2)C(=O)N1c1cccc(Cl)c1
IC50 [1]: > 10 µM (inconclusive)
IC50 [2]: 6.37 µM (active)
IC50 [3]: 8.47 µM (active)
AC50 [4]: 4.14 µM (active)
EC50 [5]: 1.46 µM (active)
IC50 [6]: 13.6 µM (active)

OC[C@@H]1[C@@H](c2ccccc2)C2(CN(Cc3ccc4c(c3)OCO4)C2)N1Cc1ccccc1
AC50 [7]: 0.634 µM (active)
AC50 [8]: 17.9 µM (active)
AC50 [9]: 0.619 µM (active)
AC50 [10]: 0.444 µM (active)
AC50 [11]: > 39 µM (inactive)
AC50 [12]: 0.616 µM (active)

O=C(NCc1nc2ccccc2[nH]1)C1=C[C@@H](c2ccc(Br)cc2)C[C@@H](OCc2ccc(CO)cc2)O1
IC50 [13]: 1.33 µM (active)
IC50 [14]: 33.7 µM (inactive)
IC50 [15]: 0.498 µM (active)
IC50 [16]: 66.6 µM (inactive)

O=C(O)CCCCC1CCSS1 (stereo not drawn) [LIPOIC ACID, ALPHA]
IC50 [17]: 0.62 µM (active)
IC50 [18]: 4.74 µM (active)
IC50 [19]: 3.91 µM (active)
IC50 [20]: 16.6 µM (active)

Cc1ccccc1OCCNc1cc(N2CCN(CCO)CC2)ccc1[N+](=O)[O-]
CC50 [21]: 19.4 µM (active)

C[C@H](CO)N1C[C@H](C)[C@@H](CN(C)S(=O)(=O)c2ccccc2)OCCCC[C@H](C)Oc2ccc(NC(=O)Nc3ccc4c(c3)OCO4)cc2C1=O
AC50 [22]: 2.35 µM (active)

CCOc1ccc(NC(=S)NCCCN2CCOCC2)cc1
EC50 [23]: 1.95 µM (not active)

C[C@H]1CN([C@@H](C)CO)C(=O)c2cccc(NC(=O)c3ccc(-c4nccs4)cc3)c2O[C@H]1CN(C)C(=O)Nc1ccc(C(F)(F)F)cc1
AC50 [22]: 8.06 µM (active)
